Laboratory results from ChEMBL document CHEMBL1154583, “Cytotoxic lavandulyl flavanones from Sophora flavescens” (J Nat Prod, 2000).
The source made the active and inactive calls. The rule behind the calls is not given here.

System: HL-60
Assay: Cytotoxicity against human HL60 cells after 96 hrs by MTT assay
Assay type: functional, cell-based
Settings: for IC50: HL-60, 96 h

Structure (SMILES) | IC50 [µM] | Activity
C=C(C)[C@H](CC=C(C)C)Cc1c(O)cc(OC)c2c1O[C@H](c1ccc(O)cc1OC)CC2=O | 13.7 | 
COc1ccc(-c2coc3cc(O)ccc3c2=O)cc1 |  | inactive
Oc1ccc2c(c1)OC[C@H]1c3cc4c(cc3O[C@@H]21)OCO4 |  | inactive
C=C(C)[C@H](CC=C(C)C)Cc1c(O)cc(O)c2c1O[C@H](c1ccc(O)cc1O)CC2=O [SOPHORAFLAVANONE G] | 12.5 | 
C=C(C)C(CC=C(C)C)Cc1c(O)cc(OC)c2c1O[C@H](c1ccc(O)cc1O)CC2=O (stereo not given in full) [KURARINONE] | 18.5 | 
